For this assay, the system named is HCT116 colorectal cancer cells. Briefly: Cisplatin sensitization assay (96 h cell viability MTS).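 Also: compound concentration needed to lower the Cisplatin-alone IC50 by a set fold.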 The note with it: 96 h MTS, compound plus Cisplatin. Type of assay: cell-based. In short, it runs like this: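 HCT116 cells were co-treated with compound and cisplatin, each in 2-fold serial dilutions from a 10 μM top final concentration, as a full matrix. After 96 h at 37 °C, 5% CO2, viability was read by MTS following a 1 h incubation with reagent.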

The results in this text go back to US10787452B2 (Vertex Pharmaceuticals Incorporated, priority 2012, dated 2020).

Structures are written as SMILES.

As for `Nc1nn2cc(F)cnc2c1C(=O)Nc1cncc(F)c1N1CCC(C(=O)N2CCC(N3CCCC3)CC2)CC1` [I-G-59, 2-amino-6-fluoro-N-(5-fluoro-4-(4-(4-(pyrrolidin-1-yl)piperidine-1-carbonyl)piperidin-1-yl)pyridin-3-yl)pyrazolo[1,5-a]pyrimidine-3-carboxamide], the “Cisplatin Sensitization Assay” value was “+++ (Compounds with a Cisplatin sensitization value of <0.02 μM are marked with “+++.”)”.
The value for `COc1ccncc1NC(=O)c1c(N)nn2cc(C(C)C#N)cnc12` (stereo not shown) [I-O-21, 2-amino-6-(1-cyanoethyl)-N-(4-methoxypyridin-3-yl)pyrazolo[1,5-a]pyrimidine-3-carboxamide] was “++ (Compounds with a Cisplatin sensitization value >0.02 μM but <0.2 μM are marked with “++.”)”.
With `CN1CCC[C@H]1COc1ccncc1NC(=O)c1c(N)nn2cc(Cl)cnc12` [I-O-50, (S)-2-amino-6-chloro-N-(4-((1-methylpyrrolidin-2-yl)methoxy)pyridin-3-yl)pyrazolo[1,5-a]pyrimidine-3-carboxamide], the “Cisplatin Sensitization Assay” value is “+ (Compounds with a Cisplatin sensitization value >0.2 μM but <5 μM are marked with “+.”)”.
On to `Nc1nn2cc(F)cnc2c1C(=O)Nc1cnccc1OC1CC[S+]([O-])CC1` (stereo not shown) [I-O-44, 2-amino-6-fluoro-N-(4-((1-oxidotetrahydro-2H-thiopyran-4-yl)oxy)pyridin-3-yl)pyrazolo[1,5-a]pyrimidine-3-carboxamide], for which the “Cisplatin Sensitization Assay” value was “++ (Compounds with a Cisplatin sensitization value >0.02 μM but <0.2 μM are marked with “++.”)”.
The value for `CN1CCC(C(=O)N2CCC(c3ccncc3NC(=O)c3c(N)nn4cc(F)cnc34)CC2)CC1` [I-C-16, 2-amino-6-fluoro-N-(4-(1-(1-methylpiperidine-4-carbonyl)piperidin-4-yl)pyridin-3-yl)pyrazolo[1,5-a]pyrimidine-3-carboxamide] was “+ (Compounds with a Cisplatin sensitization value >0.2 μM but <5 μM are marked with “+.”)”; that for `Nc1nn2cc(F)cnc2c1C(=O)Nc1cnccc1N1CCC(C(=O)N2CC(F)C2)CC1` [I-G-82, 2-amino-6-fluoro-N-(4-(4-(3-fluoroazetidine-1-carbonyl)piperidin-1-yl)pyridin-3-yl)pyrazolo[1,5-a]pyrimidine-3-carboxamide] was “+++ (Compounds with a Cisplatin sensitization value of <0.02 μM are marked with “+++.”)”; that for `N#CCc1cnc2c(C(=O)Nc3cnccc3OC3CCCNC3)c(N)nn2c1` (racemic) [I-O-2, (R,S)-2-amino-6-(cyanomethyl)-N-(4-(piperidin-3-yloxy)pyridin-3-yl)pyrazolo[1,5-a]pyrimidine-3-carboxamide] was “++ (Compounds with a Cisplatin sensitization value >0.02 μM but <0.2 μM are marked with “++.”)”.
The value for `CN1CC2CN(c3c(Cl)cncc3NC(=O)c3c(N)nn4cc(F)cnc34)CC2C1` (stereo not shown) [I-N-286, 2-amino-N-(5-chloro-4-(5-methylhexahydropyrrolo[3,4-c]pyrrol-2(1H)-yl)pyridin-3-yl)-6-fluoropyrazolo[1,5-a]pyrimidine-3-carboxamide] was “++ (Compounds with a Cisplatin sensitization value >0.02 μM but <0.2 μM are marked with “++.”)”; that for `CCOc1ccncc1NC(=O)c1c(N)nn2cc(F)cnc12` [I-O-14, 2-amino-N-(4-ethoxypyridin-3-yl)-6-fluoropyrazolo[1,5-a]pyrimidine-3-carboxamide] was “+++ (Compounds with a Cisplatin sensitization value of <0.02 μM are marked with “+++.”)”; that for `CN1CCN(C(=O)c2ccc(-c3ccncc3NC(=O)c3c(N)nn4cc(F)cnc34)cc2)CC1` [I-C-25, 2-amino-6-fluoro-N-(4-(4-(4-methylpiperazine-1-carbonyl)phenyl)pyridin-3-yl)pyrazolo[1,5-a]pyrimidine-3-carboxamide] was “+++ (Compounds with a Cisplatin sensitization value of <0.02 μM are marked with “+++.”)”.
Regarding `N#CCc1cnc2c(C(=O)Nc3cnccc3OCCCO)c(N)nn2c1` [I-O-40, 2-amino-6-(cyanomethyl)-N-(4-(3-hydroxypropoxy)pyridin-3-yl)pyrazolo[1,5-a]pyrimidine-3-carboxamide], the “Cisplatin Sensitization Assay” value is recorded as “++ (Compounds with a Cisplatin sensitization value >0.02 μM but <0.2 μM are marked with “++.”)”.
The value for `Nc1nn2cc(F)cnc2c1C(=O)Nc1cncc(F)c1C1CCN(C2COC2)CC1` [I-C-13, 2-amino-6-fluoro-N-(5-fluoro-4-(1-(oxetan-3-yl)piperidin-4-yl)pyridin-3-yl)pyrazolo[1,5-a]pyrimidine-3-carboxamide] was “++ (Compounds with a Cisplatin sensitization value >0.02 μM but <0.2 μM are marked with “++.”)”.
The value for `CS(=O)(=O)C1CCN(c2c(F)cncc2NC(=O)c2c(N)nn3cc(F)cnc23)CC1` [I-N-165, 2-amino-6-fluoro-N-(5-fluoro-4-(4-(methylsulfonyl)piperidin-1-yl)pyridin-3-yl)pyrazolo[1,5-a]pyrimidine-3-carboxamide] was “+++ (Compounds with a Cisplatin sensitization value of <0.02 μM are marked with “+++.”)”.
With `Cc1nnc(C2CCN(c3ccncc3NC(=O)c3c(N)nn4cc(F)cnc34)CC2)o1` [I-N-265, 2-amino-6-fluoro-N-(4-(4-(5-methyl-1,3,4-oxadiazol-2-yl)piperidin-1-yl)pyridin-3-yl)pyrazolo[1,5-a]pyrimidine-3-carboxamide], the “Cisplatin Sensitization Assay” value is recorded as “++ (Compounds with a Cisplatin sensitization value >0.02 μM but <0.2 μM are marked with “++.”)”.
As to `CN1CCN(c2c(NC(=O)c3c(N)nn4cc(F)cnc34)cncc2C2CC2)CC1` [I-N-5, 2-amino-N-(5-cyclopropyl-4-(4-methylpiperazin-1-yl)pyridin-3-yl)-6-fluoropyrazolo[1,5-a]pyrimidine-3-carboxamide], the “Cisplatin Sensitization Assay” value is given as “++ (Compounds with a Cisplatin sensitization value >0.02 μM but <0.2 μM are marked with “++.”)”.
The value for `Cc1nc(F)ccc1-c1ccncc1NC(=O)c1c(N)nn2cc(F)cnc12` [I-C-34, 2-amino-6-fluoro-N-(6-fluoro-2-methyl-[3,4′-bipyridin]-3′-yl)pyrazolo[1,5-a]pyrimidine-3-carboxamide] was “+++ (Compounds with a Cisplatin sensitization value of <0.02 μM are marked with “+++.”)”; that for `CC(C)N1CCN(c2ccncc2NC(=O)c2c(N)nn3cc(F)cnc23)CC1` [I-N-4, 2-amino-6-fluoro-N-(4-(4-isopropylpiperazin-1-yl)pyridin-3-yl)pyrazolo[1,5-a]pyrimidine-3-carboxamide] was “+++ (Compounds with a Cisplatin sensitization value of <0.02 μM are marked with “+++.”)”; that for `Nc1nn2cc(Cl)cnc2c1C(=O)Nc1cnccc1N1CC[S+]([O-])CC1` [I-N-68, 2-amino-6-chloro-N-(4-(1-oxidothiomorpholino)pyridin-3-yl)pyrazolo[1,5-a]pyrimidine-3-carboxamide] was “+++ (Compounds with a Cisplatin sensitization value of <0.02 μM are marked with “+++.”)”.
For `CS(=O)(=O)c1ccc(-c2ccncc2NC(=O)c2c(N)nn3cc(F)cnc23)cc1` [I-C-61, 2-amino-6-fluoro-N-(4-(4-(methylsulfonyl)phenyl)pyridin-3-yl)pyrazolo[1,5-a]pyrimidine-3-carboxamide], the “Cisplatin Sensitization Assay” value is “+++ (Compounds with a Cisplatin sensitization value of <0.02 μM are marked with “+++.”)”.
